These results are taken from ChEMBL document CHEMBL3352523, “Synthesis and biological evaluation of podophyllotoxin congeners as tubulin polymerization inhibitors” (Bioorg Med Chem, 2014).

The source made the active and inactive calls. The rule behind the calls is not given here.

The nature of assay [1]: (§1) Antiproliferative activity against human MIAPaCa2 cells assessed as growth inhibition after 48 hrs by SRB assay. Particulars: MIA PaCa-2, 48 h. It is filed as functional. (The SRB assay estimates cell density from bound dye.)
The subject of assay [2] is HeLa. Description: Antimitotic activity against human HeLa cells assessed as accumulation at G2/M phase at 5 uM after 24 hrs by PI staining based flow cytometry (reference value: 18.35%). It is filed as functional. A general note: Flow cytometry measures light scatter and fluorescence of single cells or particles in a stream.
Assay [3] has as its system HeLa. Briefly: Induction of microtubule destabilization in human HeLa cells at 5 uM after 24 hrs by immunoblot analysis. Type of assay: cell-based. For orientation: In western blotting, separated proteins are transferred to a membrane and probed.
Assay [4] deals with HeLa. Description: Antiproliferative activity against human HeLa cells assessed as growth inhibition after 48 hrs by SRB assay. It is filed as functional.
The test system of another assay is MCF7. Description: Antiproliferative activity against human MCF7 cells assessed as growth inhibition after 48 hrs by SRB assay. Type of assay: functional. The note with it: MCF7, 48 h.
In a further assay the target is Tubulin (Bos taurus, UniProt Q6B856+Q862L2+Q862F3). Briefly: Inhibition of bovine brain tubulin polymerization by fluorescence analysis.
The test system of assay [5] is HeLa. Description: Induction of microtubule depolymerization in human HeLa cells at 5 uM after 24 hrs by DAPI staining. Type of assay: cell-based.
The test system of another assay is MIA PaCa-2. The assay is described as §1. Type of assay: functional.

As usually defined, the GI50 is the concentration at which growth is held to half of that of the control. For orientation: IC50 means the point on the concentration scale where inhibition reaches its midpoint. A lower IC50 goes with inhibition by little substance. Regarding `COC(=O)[C@H]1C(c2nc3ccc(Br)cc3[nH]2)=Cc2cc3c(cc2[C@H]1c1cc(OC)c(OC)c(OC)c1)OCO3`, the results for the GI50 (in assay [1]; with HeLa [4]; with MCF7) were less than 0.01 µM, 0.21 µM and 0.54 µM, respectively. Besides, the Activity with HeLa [2] came to 73.96%. Also, the result in the assay with HeLa [3] and in the assay with HeLa [5] was Active. At Tubulin, this molecule gave an IC50 of 0.86 µM.
For the molecule `COC(=O)[C@H]1C(c2nc3cc(C(F)(F)F)cc(Br)c3[nH]2)=Cc2cc3c(cc2[C@H]1c1cc(OC)c(OC)c(OC)c1)OCO3`, the GI50 in assay [1] is 3.1 µM; in the assay on HeLa [4] it was 6.4 µM; in the assay on MCF7, 2.1 µM.
The corresponding values for `COC(=O)[C@H]1C(c2nc3cc4ccccc4cc3[nH]2)=Cc2cc3c(cc2[C@H]1c1cc(OC)c(OC)c(OC)c1)OCO3` are 2.56 µM, 3.8 µM and 1.2 µM.
Consider `COc1cc([C@@H]2c3cc4c(cc3[C@H](O)[C@H]3COC(=O)[C@H]23)OCO4)cc(OC)c1OC` [PODOFILOX], for which the results for the GI50 (in assay [1]; with HeLa [4]; in the assay with MCF7) were 0.51 µM, 0.74 µM and 0.31 µM, respectively.
On to `COC(=O)Nc1nc2cc(C(=O)c3cccs3)ccc2[nH]1` [NOCODAZOLE], for which the GI50 in assay [1] came out at 0.95 µM; with HeLa [4], 0.81 µM; in the assay with MCF7, 0.94 µM.
The corresponding values for `COC(=O)[C@H]1C(c2nc3cc(Cl)c(Cl)cc3[nH]2)=Cc2cc3c(cc2[C@H]1c1cc(OC)c(OC)c(OC)c1)OCO3` are 3.2 µM, 19.7 µM and 0.58 µM.
Regarding `COC(=O)[C@H]1C(c2nc3ccc(Cl)cc3[nH]2)=Cc2cc3c(cc2[C@H]1c1cc(OC)c(OC)c(OC)c1)OCO3`, the GI50 in assay [1] was 1.3 µM; with HeLa [4] it was 2.16 µM; in the assay with MCF7, 2.09 µM.
Taken in the same sequence, the figures for `COC(=O)[C@H]1C(C=O)=Cc2cc3c(cc2[C@H]1c1cc(OC)c(OC)c(OC)c1)OCO3` were 0.73 µM, 0.69 µM and 0.91 µM.
With `COC(=O)[C@H]1C(c2nc3ccc(OC)cc3[nH]2)=Cc2cc3c(cc2[C@H]1c1cc(OC)c(OC)c(OC)c1)OCO3`, the GI50 is 1.6 µM in assay [1], 1.04 µM in the assay with HeLa [4] and 2.1 µM in the assay with MCF7. For the same molecule, the Activity in the assay on HeLa [2] was determined as 68.91%. Further, the outcome with HeLa [3] and in the assay with HeLa [5] was Active. This molecule had an IC50 at Tubulin of 0.91 µM.
Take `COc1cc([C@@H]2c3cc4c(cc3[C@@H](O[C@@H]3O[C@@H]5CO[C@@H](C)O[C@H]5[C@H](O)[C@H]3O)[C@H]3COC(=O)[C@H]23)OCO4)cc(OC)c1O` [ETOPOSIDE]: the GI50 in assay [1] came out at 1.1 µM; with HeLa [4], 0.62 µM; with MCF7, 0.25 µM.
In the case of `COC(=O)[C@H]1C(c2nc3ccc(F)c(Cl)c3[nH]2)=Cc2cc3c(cc2[C@H]1c1cc(OC)c(OC)c(OC)c1)OCO3`, the GI50 entry in the assay with MIA PaCa-2 is “inactive”. Besides, the results for the GI50 in the assay with HeLa [4] and in the assay with MCF7 were 24.2 µM and 2.3 µM, respectively.
Take `COC(=O)[C@H]1C(c2nc3ccccc3[nH]2)=Cc2cc3c(cc2[C@H]1c1cc(OC)c(OC)c(OC)c1)OCO3`: the GI50 in assay [1] is 1.2 µM; with HeLa [4], 0.2 µM; in the assay with MCF7 it was 0.2 µM. Moreover, in the assay with HeLa [2], the Activity was determined as 56.05%. Moreover, the IC50 at Tubulin came out at 1.29 µM.
For the molecule `COC(=O)[C@H]1C(c2nc3ccc(C)cc3[nH]2)=Cc2cc3c(cc2[C@H]1c1cc(OC)c(OC)c(OC)c1)OCO3`, the GI50 in assay [1] worked out at 18.1 µM; with HeLa [4], 2.8 µM; in the assay on MCF7 it was 3.07 µM.
Turning to `COC(=O)[C@H]1C(c2nc3ccc(C(F)(F)F)cc3[nH]2)=Cc2cc3c(cc2[C@H]1c1cc(OC)c(OC)c(OC)c1)OCO3`, in the assay on MIA PaCa-2, the GI50 entry is “inactive”. The results for the 50% growth inhibitory concentration (GI50) in the assay on HeLa [4] and in the assay on MCF7 were 5.08 µM and 4.8 µM, respectively.
With `COC(=O)[C@H]1C(c2nc3cc(C)c(C)cc3[nH]2)=Cc2cc3c(cc2[C@H]1c1cc(OC)c(OC)c(OC)c1)OCO3`, the GI50 in assay [1] was determined as 1.5 µM; with HeLa [4] it was 3.6 µM; in the assay with MCF7, 0.16 µM.
Taken in the same sequence, the figures for `COC(=O)[C@H]1C(c2nc3ccc(F)cc3[nH]2)=Cc2cc3c(cc2[C@H]1c1cc(OC)c(OC)c(OC)c1)OCO3` were 3.9 µM, 4.3 µM and 0.02 µM.
